In patent publication US8211646B1, “Methods of treating ovarian cancer by modulating SnoN” (University of South Florida, priority 2008, dated 2012):
Peptide text beside a SMILES is read from it. * marks the point of attachment. Cbz = O=C(OCc1ccccc1)*; CH2F = FC*

Assays:
Format in all cases: cell-based
[1] = test system: EVI1 forms (MDS1/EVI1, EVI1, EVI1^Del190-515)
Method: (§1) Proteins were resolved on an 8%, 12%, or 15% SDS-PAGE gel (as appropriate) and electrophoretically transferred to polyvinyldifluoride (PVDF) membranes. After blocking with 5% (w/v) milk in TBST (Tris-Buffered Saline containing 0.1% Tween-20) for one hour at room temperature, membranes were incubated with primary antibodies (at appropriate dilution) overnight at 4° C., followed by extensive washing and incubation for 1 hour with the appropriate horseradish peroxidase-conjugated secondary antibodies (BioRad, Hercules, Calif.). Blots were washed extensively. A rabbit polyclonal EVI1 antibody was obtained (1:3000 dilution, St. Jude's Children's Hospital, Memphis, Tenn.). SnoN rabbit polyclonal (1:1000 dilution), PML, and p21 SMURF2 rabbit polyclonal (1:500 dilution), MRP1 mouse monoclonal (1:500 dilution) and GAPDH mouse monoclonal (1:250 dilution) antibodies were obtained from Santa Cruz Biotechnology (Santa Cruz, Calif.). TGFβRII rabbit polyclonal (1:1000 dilution) antibody was obtained from Strategic Diagnostics (Newark, Del.). Smad2/3 rabbit polyclonal (1:1000 dilution), Beclin-1 rabbit polyclonal (1:1000 dilution), AKT rabbit polyclonal (1:1000 dilution), TAK1 rabbit polyclonal (1:1000 dilution), PARP rabbit polyclonal (1:1000 dilution), Beclin-1 rabbit polyclonal (1:1000 dilution), caspase-3 rabbit polyclonal (1:1000) which detects the pro-caspase form, and ATG5 rabbit polyclonal (1:1000 dilution), LC3-II rabbit polyclonal (1:1000 dilution) antibodies were obtained from Cell Signaling Technology (Danvers, Mass.). The HSP27 mouse monoclonal (1:1000 dilution) antibody was obtained from Stressgen (Ann Arbor, Mich.). Blots were developed using chemiluminescence substrates (Amersham Piscataway, N.J. or BioRad, Hercules, Calif.). Monoclonal PAI-1 antibody was obtained from BD Pharmingen. PSMAD2, total SMAD2/3, p-ERK, p-AKT, and total AKT antibodies were obtained from Cell Signaling Technology. A monoclonal antibody against Arkadia was obtained from Abnova (Taiwan).
(§2) Densitometric analysis was performed using the HP Scanjet 5590 and the Image J program (Image Processing and Analysis in Java, NIH Image Software). Bands were selected and the intensity values were normalized to those for GAPDH. The values are presented as fold-changes relative to control siRNA treated cells.
(§3) The clinical inhibitors As2O3, geldanamycin (17-AAG) (dissolved in dimethylsulfoxide [DMSO]), and MG132 (dissolved in DMSO) were obtained from Sigma-Aldrich (St. Louis, Mo.), Fisher Scientific (Pittsburgh, Pa.), and Alexis Biochemicals (Farmingdale, N.Y.), respectively. N-acetyl-L-cysteine (NAC; dissolved in media) and Bortezomib (PS-341; dissolved in DMSO) were obtained from Fisher Scientific. 3-Methyladenine (3-MA; dissolved in media) was obtained from MP Biomedicals (Solon, Ohio). Tiron (4,5-Dihydroxy-1,3-benzenedisulfonic acid, dissolved in media) was obtained from Fisher Scientific. zVAD-fmk (dissolved in DMSO) and bafilomycin A (dissolved in DMSO) was obtained from Axxora LLC (San Diego, Calif.). Bovine catalase was obtained from Sigma-Aldrich. HBED and Mn TBAP was obtained from ENZO Life Sciences (Farmingdale, N.Y.). Ovarian cells were plated in 6-well plates at 250,000 cells per well and grown in complete medium. The following day, the cells were treated with 5 μM MG132, As2O3 (between 2-50 μM), 17-AAG (between 2-50 μM), NAC (Fisher Scientific, between 25 μM to 1 mM), Tiron (between 25 μM to 1 mM), 3-MA (0.1 mM to 10 mM), or zVAD-fmk (25 μM to 100 μM). For control cells, DMSO (a final concentration of <0.5%) was added to compare appropriately to drugs dissolved in DMSO. After the appropriate incubation time (6 or 18 hours), cell lysates were collected, protein quantified, and SDS-PAGE/western analysis was performed. In addition, for selected studies, RNA was isolated, quantified, and used for qPCR analysis.

SnoN = assay: Western analysis of SnoN protein levels
Method: as §1, §2
as §3, with “The following day, the cells were treated with 5 μM MG132, As2O3 (between 2-50 μM), 17-AAG (between 2-50 μM), NAC (Fisher Scientific, between 25 μM to 1 mM), Tiron (between 25 μM to 1 mM), 3-MA (0.1 mM to 10 mM), or zVAD-fmk (25 μM to 100 μM).” left out

[2] = test system: TAK1, SMAD2/3, TGFβRII, AKT, phospho-SMAD2; assay: Western analysis of other TGFβ signaling mediators
Method: as §1, §2, §3

ovarian cancer cells = assay: Cell titer glo cell viability assay; settings: 25 μM, 18 hour treatment, relative to control cells
Method: Measurement of Intracellular ATP Levels. T80, HEY, and SKOV3 ovarian cells were seeded in triplicate for each treatment group at 5000 cells per well into each well of a 96 well white-opaque plate. Following overnight cell attachment, cells were treated for 18 hours with appropriate doses of arsenic trioxide or geldanamycin (0 mM, 2 μM, 5 μM, 10 μM, 25 μM, and 50 μM). Following termination of the cell treatments, the media was removed from the wells and replaced with 100 μl of phosphate-buffered saline (PBS). The plate was equilibrated to room temperature, 100 μl of Cell-Titer Glo reagent (Promega, Madison, Wis.) was added, and mixed on a plate shaker for 2 minutes. The plate was further incubated for 10 minutes at room temperature prior to reading with a Biotek luminescence plate reader to obtain relative light unit (RLU) measurements. Empty wells (containing no cells) were utilized as a correction for background luminescence. All experiments were performed in triplicate.

[3] = test system: LC3-I/LC3-II, autophagosomes; assay: Autophagy: LC3 western, EGFP-LC3 fluorescence, TEM of autophagosomes; settings: HEY, 18 hours
Method: as §1
HEY cells were seeded onto glass coverslips and allowed to adhere following overnight incubation. The cells were then transiently transfected with EGFP-LC3 (Addgene, Cambridge, Mass.) and allowed to recover for 24 hours. The cells were treated at the appropriate concentrations of As2O3 in the absence or presence of 3-MA (5 and 10 mM), for 18 hours. The cells were then fixed in 4% paraformaldehyde in PBS for 30 minutes at room temperature, washed twice in PBS, and blocked for 1 hour at room temperature in PBS containing 5% goat serum and 0.1% Triton X-100. The cells were counterstained with Hoescht nuclear stain, washed 3 times for 5 minutes in PBS, anti-Fade containing DAPI nuclear stain was then applied, and coverslips mounted onto glass slides and viewed under a Zeiss inverted fluorescence microscope (Moffitt Cancer Center Microscopy Core).
Autophagy induction was analyzed using electron microscopy. […] Cells were then fixed in 2.5% glutaraldehyde in 0.1M phosphate buffer overnight at 4° C. Following rinsing in buffer, cells were scraped from the culture flasks, washed, and then post-fixed in 1% osmium tetroxide in buffer. After dehydration in a graded series of acetone, the cells were embedded in Embed 812 epoxy resin. Thin sections (70 nm) were cut on an Ultramicrotome. The sections on the grids were stained with uranyl acetate and lead citrate. The sections were examined on a Transmission Electron Microscope (Morgagni 268D).

cleaved PARP = assay: Western analysis of PARP cleavage (early apoptosis marker); settings: HEY; for PARP cleavage in As2O3-treated cells with added inhibitor: 18 hours
Method: as §1, §2, §3

HSP27 = assay: Western analysis of HSP27; settings: HEY, 18 hours
Method: as §1, with “The HSP27 mouse monoclonal (1:1000 dilution) antibody was obtained from Stressgen (Ann Arbor, Mich.). Blots were developed using chemiluminescence substrates (Amersham Piscataway, N.J. or BioRad, Hercules, Calif.). Monoclonal PAI-1 antibody was obtained from BD Pharmingen. PSMAD2, total SMAD2/3, p-ERK, p-AKT, and total AKT antibodies were obtained from Cell Signaling Technology. A monoclonal antibody against Arkadia was obtained from Abnova (Taiwan).” left out
(§4) The clinical inhibitors As2O3, geldanamycin (17-AAG) (dissolved in dimethylsulfoxide [DMSO]), and MG132 (dissolved in DMSO) were obtained from Sigma-Aldrich (St. Louis, Mo.), Fisher Scientific (Pittsburgh, Pa.), and Alexis Biochemicals (Farmingdale, N.Y.), respectively. […] After the appropriate incubation time (6 or 18 hours), cell lysates were collected, protein quantified, and SDS-PAGE/western analysis was performed. In addition, for selected studies, RNA was isolated, quantified, and used for qPCR analysis.

SnoN RNA = assay: qPCR of SnoN RNA levels in ovarian cell lines; parameters: reduction of basal SnoN RNA levels / effect on basal SnoN RNA levels: unit of the concentration uncertain
Method: RNA was isolated using the RNeasy Mini Kit (Qiagen, Valencia, Calif.) from normal, benign, stage I-IV ovarian patient samples and quantitative PCR was performed. A one-step RT-PCR Taqman master mix from Applied Biosystems (Foster City, Calif.) and primers for genes in the 3q26.2 amplicon were obtained using Genebank sequences as well as from Assays on Demand (Hs00180524_m1 (SnoN/SkiL)), with the following primers and probe sets.
Primers/probe sequences for SnoN (Hs00180524_m1), TGFβRII (Hs00234253_m1), and LC3 (Hs00261291_m1) were obtained from Applied Biosystems (Assays by Design).
mRNA levels were determined using the One-Step-Plus Applied Biosystems Detection System or ABI PRISM 7700 Sequence Detection System using β-actin as a reference. PCR conditions were as follows: stage I: 48° C. for 30 min; stage II: 95° C. for 10 min; stage III: [40 cycles] 95° C. for 15 s followed by 60° C. for 1 min Using the correlative method, RNA-fold change in expression was calculated as Ct of gene—Ct of β-actin to generate ΔCt from which ΔCt of the normal sample was subtracted. These values were then converted to log2 values.
as §4, with “respectively. N-acetyl-L-cysteine (NAC; dissolved in media) and Bortezomib (PS-341; dissolved in DMSO) were obtained from Fisher Scientific. 3-Methyladenine (3-MA; dissolved in media) was obtained from MP Biomedicals (Solon, Ohio). Tiron (4,5-Dihydroxy-1,3-benzenedisulfonic acid, dissolved in media) was obtained from Fisher Scientific. zVAD-fmk (dissolved in DMSO) and bafilomycin A (dissolved in DMSO) was obtained from Axxora LLC (San Diego, Calif.).” for “respectively.”

[4] = HEY and OVCA429, 18 hours, increasing doses

17-allylaminogeldanamycin [17-AAG]
MDS1/EVI1 and EVI1^Del190-515 protein ([1]; 5 μM 17-AAG, 18 hour): reduced
wild type EVI1 protein ([1]; 5 μM 17-AAG, 18 hour): not dramatically affected
protein levels of EVI1 forms [1, 4]: slight decrease
SnoN/SkiL protein levels (SnoN; [4]): slight decrease
TGFβRII, SMAD2/3, and AKT protein [2, 4]: more marked reductions
reduction of cell growth (cellular viability) (ovarian cancer cells): 63%

Cn1cnc(N)c2ncnc1-2 [3-MA, 3-Methyladenine]
SnoN levels in As2O3-treated cells with added inhibitor (SnoN; HEY, 18 hours): not dramatically altered
LC3 levels (LC3-II/LC3-I) in As2O3-treated cells with added inhibitor [3]: reduced
PARP cleavage in As2O3-treated cells with added inhibitor (cleaved PARP): further increased
HSP27 levels in As2O3-treated cells with added inhibitor (HSP27): reduced dramatically

CO/C1=C\C(C)=C\[C@@H](C)[C@@H](O)[C@@H](C)C/C(C)=C/C=C/[C@H](OC)[C@@H]([C@@H](C)[C@@H](O)[C@H](C)[C@@]2(O)C[C@@H](O)[C@H](C)[C@@H](C(C)C)O2)OC1=O [Bafilomycin A1]
SnoN levels in As2O3-treated cells with added inhibitor (SnoN; HEY, 18 hours): slightly reduced
LC3 levels (LC3-II/LC3-I) in As2O3-treated cells with added inhibitor [3]: increased
PARP cleavage in As2O3-treated cells with added inhibitor (cleaved PARP): increased

O=c1cc(N2CCOCC2)oc2c(-c3ccccc3)cccc12 [LY294002]
reduction of basal SnoN RNA levels (SnoN RNA; 50 (unit uncertain), 12 h post-treatment, OVCA429, HEY, T29, T80): 50%

CC(=O)N[C@@H](CS)C(=O)O [NAC, N-acetyl-L-cysteine]
SnoN expression in As2O3-treated cells with increasing doses of NAC (SnoN; HEY, 18 hours): markedly reduced
EVI1, TAK1, and TGFβRII protein expression in As2O3-treated cells with NAC ([2]; HEY, 18 hours): recovery

CC(C)C[C@H](NC(=O)[C@H](Cc1ccccc1)NC(=O)c1cnccn1)B(O)O [PS-341, Bortezomib]
EVI1 protein in As2O3-treated cells with added proteosome inhibitor ([1]; combination with As2O3, HEY, OVCA429): recovered
SnoN protein in drug-treated cells with added proteosome inhibitor (SnoN; combination with As2O3): further increased
TGFβRII protein in drug-treated cells with added proteosome inhibitor ([2]; combination with As2O3 (MG132: 6 hour drug treatment)): did not appear to be recovered

N#CC(=C(/N)Sc1ccccc1N)/C(C#N)=C(\N)Sc1ccccc1N [U0126]
effect on basal SnoN RNA levels (SnoN RNA; 25 (unit uncertain), data not shown): not significant

COC(=O)C[C@H](NC(=O)[C@H](C)NC(=O)[C@@H](NC(=O)OCc1ccccc1)C(C)C)C(=O)CF [zVAD-fmk] (Cbz-Val-Ala-Asp(OMe)-CH2F)
SnoN levels in As2O3-treated cells with added inhibitor (SnoN; HEY, 18 hours): remained unchanged
LC3 levels (LC3-II/LC3-I) in As2O3-treated cells with added inhibitor [3]: remained unchanged
PARP cleavage in As2O3-treated cells with added inhibitor (cleaved PARP): dramatically reduced
HSP27 levels in As2O3-treated cells with added inhibitor (HSP27): slightly decreased

EVI1 siRNA: Dharmacon custom siRNA against EVI1 Exon VII, SEQ ID 6 (ACUACGUCUUCCUUAAAUAUU; listed as RNA, chemistry not given here)
reduction of SnoN levels (SnoN; absence and presence of As2O3 (6 and 18 h, 50 μM), HEY): > 50%
effect on As2O3-induced PARP cleavage (cleaved PARP; As2O3-treated): did not dramatically alter

TGF-β
SnoN protein levels in ovarian cancer cells (SnoN; SKOV3, OVCA429, OVCAR8, HEY, between 1 and 3 h post stimulation): dramatic increase
SnoN protein levels in immortalized normal ovarian epithelial cells (SnoN; T29 and T80, between 15 min and 1 h post-TGF-β stimulation (50 pM)): dramatic decrease
phospho-SMAD2 levels ([2]; 1 h post stimulation, T29, T80, SKOV3, HEY, OVCA429, OVCAR8): markedly elevated
